# Measured values published in patent US20140179664A1, “Heterocyclyl Pyrimidine Analogues As JAK Inhibitors” (Cellzome Limited, priority 2011, published 2014).
# Test system: STAT5 phosphorylation downstream of JAK3 in human YT cells
# Test: pSTAT5 cell assay (IL-2 stimulated YT cells, AlphaScreen)
# Assay type: cell-based
# Details: IL-2 stimulation, read-out: Inhibition values (IC50) pSTAT5
# Text: STAT5 phosphorylation represents one of the proximal events in the signalling cascade downstream of JAK3 activation. Therefore STAT5 phosphorylation is an appropriate readout to assess the mechanistic effect of JAK3 inhibition. Stimulation of human YT cells, an NK-like cell line, with interleukin-2 (IL-2) results in phosphorylation of STAT5 at tyrosine residue 694 (Tyr694) that can be quantitatively measured by immunodetection with specific antibodies and an appropriate detection method, in this case AlphaScreen assay technology.
# Human YT cells were grown in RPMI medium (Lonza, BE12-167) with 2 mM L-Glutamine (Invitrogen, 25030-024) and 10% heat-inactivated FBS (Invitrogen, 10106-169) and kept in a humidified incubator (37° C., 5% CO2). Cells were harvested by centrifugation, washed once with HBSS (Invitrogen, 14180-046), resuspended in HBSS at 1.5×10^6 cells/ml and 0.9×10^4 cells were seeded in 6 μl per well in a 96 well White plate (PerkinElmer, 6005569).
# Test compounds were dissolved in DMSO and a 1:3 dilution series (9 steps) was prepared. To generate a dose response curve, 3 μl of fourfold concentrated compound in 4% DMSO/HBSS were added to each cell sample in the 96 well plate resulting in a final DMSO concentration of 1% DMSO. Cells were incubated for one hour in a humidified incubator (37° C., 5% CO2). To each well 3 μl of a fourfold concentrated IL-2 solution (Recombinant human IL-2, Peprotech 200-02; 120 nM solution in HBSS) was added and incubated for 30 minutes at room temperature. Cells were lysed by adding 3 μl of 5× lysis buffer (SureFire lysis buffer; Perkin Elmer, TGRS5S10K) and incubated for 10 minutes at room temperature with gentle shaking
# For signal detection by AlphaScreen® technology the SureFire phospho-STAT5 (Tyr694/Tyr699) kit was used according to instructions provided by the manufacturer (Perkin Elmer, TGRS5S10K). Acceptor beads were added as recommended by the manufacturer (Reactivation buffer/Activation buffer/Acceptor beads at a ratio of 40:10:1) and incubated at room temperature for 1.5 hours with gentle shaking Then donor beads were added as recommended (Dilution buffer/Donor beads at a ratio of 20:1) and incubated at room temperature for 1.5 hours with gentle shaking Plates were read on an Envision instrument (Perkin Elmer) with the AlphaScreen protocol. Data were analysed in BioAssay using the nonlinear regression for a sigmoidal dose-response with a variable slope.
row,IC50 [nM],Structure (SMILES)
1,< 250,OC[C@@H](Nc1nc(Nc2cnn(CC(F)F)c2)ncc1Cl)c1ccccc1F [Compound 165]
2,250 to 1000,OCCn1cc(Nc2ncc(Cl)c(N[C@H](CO)c3ccccc3)n2)cn1 [Compound 9]
3,250 to 1000,Cn1cc(Nc2ncc(Cl)c(N[C@H](CO)c3ccccc3)n2)cn1 [Compound 4]
